What was measured:
CT26 cells = test: Cytotoxicity, CellTiter-Glo cell viability assay; type: cell-based, murine; conditions: 0.625 μg/mL to 10 μg/mL, 24 hours
Protocol: The experiment further includes untreated CT26 cells, the CT26 cells treated with free R848 or the CT26 cells treated with the carrier PANI-GCS as a control. […] The CT26 cells are seeded in 96-well plates at 1×10^4 cells/well for 24 hours. […] The viability of the CT26 cells is evaluated by the CellTiter-Glo® Luminescent Cell Viability Assay kit (Promega, Madison, Wis., USA).

BMDCs = test: Proinflammatory cytokines secreted by BMDCs (bead arrays); type: cell-based, Balb/c mice
Protocol: The dendritic cells used in the experiment are dendritic cells differentiated from bone marrow cells (BMDC). […] After 10 days, suspended immature BMDCs are collected for further experiments. […] The cellular uptake of the f-PANI-GCS-R848 by the BMDCs is measured by flow cytometry and immunofluorescence staining. The experiment further includes the BMDCs treated with medium only as a control. Flow cytometry is performed to measure the cell uptake of f-PANI-GCS-R848 by BD Accuri™ C6 flow cytometer (BD Biosciences, San Jose, Calif., USA), and data are analyzed using FlowJo (Treestar, Ashland, Oreg., USA). In immunofluorescence staining, LysoTracker is used as a cell marker for endosome. The BMDCs are incubated with LysoTracker™ Red DND-99 (Thermo Fischer Scientific) containing medium for 2 hours, washed, and stained with 4′,6-diamidino-2-phenylindole (DAPI) in PBS for 10 minutes. Finally, the BMDCs are observed and imaged under a confocal laser scanning microscopy (CLSM, LSM 780, Carl Zeiss, Jena, Germany). […] The BMDCs and the culture supernatants are then collected separately. The expression of mature dendritic cell markers CD80 and CD86 in the treated BMDCs are analyzed by flow cytometry, and the concentrations of inflammatory cytokines secreted by mature dendritic cells in the supernatant are measured by […] beads arrays (CBA, BD Bioscience). The experiment further includes the BMDCs treated with medium only as negative controls (represented as “PBS”). The flow cytometry includes follow steps. The BMDCs are incubated with APC-conjugated anti-mouse CD80 antibody (eBioscience) or FITC-conjugated anti-mouse CD86 Antibody (eBioscience), and then analyzed by BD Accuri™ C6 flow cytometer.

CT26 primary tumor = test: Animal treatment test: primary tumor size and survival; type: in vivo, Balb/c mice; conditions: without NIR; treated day 14, 21, 28
Protocol: Experimental animals used in the experiments are Balb/c mice (6-8 weeks old), which are purchased from BioLASCO Taiwan Co., Ltd. (Taipei, Taiwan). All the animal experiments are performed according to “Guide for the Care and Use of Laboratory Animals” developed by the Institute of Laboratory Animal Resources, National Research Council. Balb/c mice are inoculated with 1×10^6 CT26 cells subcutaneously on their right flanks (primary tumor). Fourteen days later when the tumor diameter is about 5 mm (or the tumor volumes reach 150-200 mm^3), the Balb/c tumor mice are established and further used to test the cancer treatment effects on the immunothermosensitive composition and the kit for treating cancer of the present disclosure, and whether the immunothermosensitive composition and the kit for treating cancer of the present disclosure can achieve the dual effects of hyperthermia therapy and immunotherapy.
Further, the cancer treatment effects on the immunothermosensitive composition and the kit for treating cancer of the present disclosure is confirmed in the experiment. […] The size of each primary tumor, which is estimated as length×width×height×π/6, is assessed using a pair of caliper every 2-3 days. […] The Balb/c tumor mice with the rechallenged tumor are no longer treated, but the size of each rechallenged tumor is observed and recorded. […]

[1] = at 24 hours, 5 μg/mL free R848, 50 μg/mL PANI-GCS-R848
[2] = at 48 hours and 72 hours (after 24 hours)

For CCOCc1nc2c(N)nc3ccccc3c2n1CC(C)(C)O [R848, resiquimod], the “cytotoxicity (cell viability)” value (CT26 cells) was “not significantly cytotoxic”, the IL-6 secretion (BMDCs; [1]) was “notable levels” and the TNF-α secretion (BMDCs; [1]) was “notable levels”. For the same compound, the IL-6 secretion (BMDCs; [2]) was “do not change significantly”, the TNF-α secretion (BMDCs; [2]) was “do not change significantly” and the “growth of the primary tumor” value (CT26 primary tumor) was “slightly delayed”.

— patent US20200206349A1, “Immunothermosensitive Composite, Kit For Treating Cancer, And Use Thereof” (National Tsing Hua University, priority 2018, published 2020)
